According to ChEMBL document CHEMBL5230166, “Novel quinoline-piperazine hybrids: the design, synthesis and evaluation of antibacterial and antituberculosis properties” (RSC Med Chem, 2023):
Values after ≈ are worked out from the molar mass of the structure shown.

System: Mycobacterium tuberculosis
Experiment: Antibacterial activity multi-drug resistant Mycobacterium tuberculosis H37Rv ATCC 35822 assessed as inhibition of bacterial growth incubated for 2 days by CLSI protocol based broth microdilution method
Assay type: functional
Conditions: H37Rv ATCC 35822, 48 h, time 2 day

Row | Structure (SMILES) | MIC [µg/mL]
1 | COc1ccc2nc(CN3CCN(C(=O)C4CCC4)CC3)cc(OC)c2c1 | > 64
2 | COc1ccc2nc(CN3CCN(S(=O)(=O)c4c(F)c(F)c(F)c(F)c4F)CC3)cc(OC)c2c1 | > 64
3 | COc1cc(CN2CCN(S(=O)(=O)c3ccc(Cl)cc3Cl)CC2)nc2ccc(F)cc12 | > 64
4 | COc1cc(CN2CCN(C(=O)c3ccccc3C)CC2)nc2ccc(F)cc12 | > 64
5 | COc1ccc2nc(CN3CCN(S(=O)(=O)c4ccccc4F)CC3)cc(OC)c2c1 | 0.5 (≈ 1.12 µM)
6 | COc1ccc2nc(CN3CCN(S(=O)(=O)c4ccccc4C(F)(F)F)CC3)cc(OC)c2c1 | > 64
7 | COc1ccc2nc(CN3CCN(C(=O)c4ccc(Cl)c(Cl)c4)CC3)cc(OC)c2c1 | > 64
8 | CNS(=O)(=O)N1CCN(Cc2cc(OC)c3cc(OC)ccc3n2)CC1 | > 64
9 | CO[C@H]1/C=C/O[C@@]2(C)Oc3c(C)c(O)c4c(O)c(c(/C=N/N5CCN(C)CC5)c(O)c4c3C2=O)NC(=O)/C(C)=C\C=C\[C@H](C)[C@H](O)[C@@H](C)[C@@H](O)[C@@H](C)[C@H](OC(C)=O)[C@@H]1C [RIFAMPIN] | > 64
10 | COc1cc(CN2CCN(S(=O)(=O)c3ccccc3F)CC2)nc2ccc(F)cc12 | 4 (≈ 9.23 µM)
11 | COc1ccc2nc(CN3CCN(C(=O)c4ccccc4OC)CC3)cc(OC)c2c1 | > 64
12 | COc1cc(CN2CCN(S(=O)(=O)c3ccc(C)cc3)CC2)nc2ccc(F)cc12 | > 64
13 | COc1cc(CN2CCN(S(=O)(=O)c3ccc(NC(C)=O)cc3)CC2)nc2ccc(F)cc12 | > 64
14 | C[C@H]1COc2c(N3CCN(C)CC3)c(F)cc3c(=O)c(C(=O)O)cn1c23.C[C@H]1COc2c(N3CCN(C)CC3)c(F)cc3c(=O)c(C(=O)O)cn1c23.O [LEVOFLOXACIN] | 4
15 | COc1ccc2nc(CN3CCN(C(=O)c4ccc(Cl)cc4Cl)CC3)cc(OC)c2c1 | > 64
16 | COc1ccc2nc(CN3CCN(C(=O)c4ccccc4F)CC3)cc(OC)c2c1 | > 64
17 | COc1ccc2nc(CN3CCN(S(=O)(=O)c4ccc(F)cc4)CC3)cc(OC)c2c1 | > 64
18 | COc1cc(CN2CCN(C(=O)c3cccc(Cl)c3)CC2)nc2ccc(F)cc12 | > 64
19 | COc1cccc(C(=O)N2CCN(Cc3cc(OC)c4cc(OC)ccc4n3)CC2)c1 | > 64
20 | COc1ccc(C(=O)N2CCN(Cc3cc(OC)c4cc(F)ccc4n3)CC2)cc1 | > 64
21 | COc1cc(CN2CCN(C(=O)c3cccc(F)c3)CC2)nc2ccc(F)cc12 | > 64
22 | COc1ccc2nc(CN3CCN(C(=O)c4c(Cl)cccc4Cl)CC3)cc(OC)c2c1 | > 64
23 | COc1ccc2nc(CN3CCN(S(=O)(=O)c4c(C)cc(C)cc4C)CC3)cc(OC)c2c1 | > 64
24 | COc1ccc2nc(CN3CCN(S(=O)(=O)c4ccc(NC(C)=O)cc4)CC3)cc(OC)c2c1 | > 64
25 | COc1ccc(S(=O)(=O)N2CCN(Cc3cc(OC)c4cc(F)ccc4n3)CC2)cc1 | > 64
26 | COc1cc(CN2CCN(C(=O)c3ccccc3F)CC2)nc2ccc(F)cc12 | > 64
27 | COc1ccc2nc(CN3CCN(S(=O)(=O)c4cccs4)CC3)cc(OC)c2c1 | > 64
28 | COc1ccc2nc(CN3CCN(S(=O)(=O)c4cccc5ccccc45)CC3)cc(OC)c2c1 | > 64
